Measurements reported in US9198896B2 (priority 2006, dated 2015).

Legend:
[1] = mice, 1 day: oral 2 g, subcutaneous 1 g, intravenous 0.3 g/kg; observed up to 90 days
[2] = system: EAC cells; test: Increase in life span study of EAC cell-inoculated mice; type: in vivo; details: 14 days from day 3
Procedure: Increase in life span study. For increase in life span study (ILS), testing was evaluated by calculating the median survival time (MST) of the treated (T) and control (C) groups and expressed as ILS value [(T/C−1)×100].
The treatment started from day 3. The amount of each compound indicated in the parentheses is the amount administered per kg body weight per day.
The day on which 10^5 EAC cells were inoculated into each mouse was considered as day 0. The treatment started from day 3. […] 15 animals received a particular mode of treatment. Control group received only normal saline. […] Each set of experiment was repeated 4 times.

[3] = Teratogenicity study; type: in vivo, mice; details: treatment (oral and intravenous) from conception for 3 weeks
Procedure: Teratogenicity: For this test, mating was performed between mice as mentioned above in the case of fertility studies. […] But, as soon as they conceived, as indicated by vaginal plug formation, the treatment (oral and intravenous) started and continued for 3 weeks in a similar fashion for chronic toxicity studies. […] These litters also grew up healthy with no signs of abnormality. Healthy litters were born again when mating was performed among these animals.

[4] = rats
Procedure: (§1) Long-term (chronic) toxicity study: Mode of treatment and dilution by either water or normal saline were identical to acute toxicity study. Chronic toxicity study was made with four species of animals: mice, rat, rabbit and dog.
Rats. For experiment with these animals, 4 batches of rats were used per mode of treatment. Each batch contained 5 rats either male or female weighing 75-80 g per animal. […] Then, the rats were injected for 3 cycles; one cycle consisted of injections for two consecutive days followed by a rest of 1 day.
(§2) Total number of animals in each group including control and different modes of treatment: 6 (mice), 5 (rats) and 4 (rabbits). Each set of experiment was repeated 4 times for mice and rats and for rabbits 2 times respectively. […] In Table 3, αWeight of animals for mice and rats in gm and for rabbit in Kg.
Details are described in the Tables.

[5] = Long-term (chronic) toxicity study, mice; details: multiple dose, observed up to 90 days after treatment
Source text: as §1
Mice. For experiment with these animals, 4 batches of mice were used per mode of treatment. Each batch contained 6 animals either male or female weighing 18-25 g. […] In all the cases, control group received water or normal saline in respective manner.
as §2

[6] = Histological studies with mice; type: in vivo; details: oral 0.5 gm/kg once a day for 10 weeks
Source text: After end of the treatment, the mice were killed, and several organs were excised and processed for histological studies. Bone marrow cells were taken from the marrow cavity of the femur bone.
Histological studies with mice: Histological studies were done with several organs of mice, and the results are presented in FIG. 1.

[7] = Pharmacokinetics, single oral dose study; details: for ka (apparent absorption rate constant): 1 to 4 h; for k (elimination rate constant): 4-8 h; for half-life / CL/F / Cmax / Tmax: mouse, whole blood, po
[8] = Table 7, MG 30 mg/kg/day ip 0.5 ml
[9] = Table 7, MG 100 mg/kg/day ip 0.5 ml
[10] = Table 11, MG 30 mg/kg/day ip 0.25 ml
[11] = Table 11, MG 100 mg/kg/day ip 0.25 ml
[12] = mice, single oral dose 50 mg/kg
[13] = mice, single oral dose 100 mg/kg
[14] = mice, single oral dose 200 mg/kg

## CC(=O)C=O [methylglyoxal]
[1]
  death: No death
[2]; [8]
  60 day survivors/15 animals: 1
  ILS value: 34%
  Median survival time: 26 days
[2]; [9]
  60 day survivors/15 animals: 10
  ILS value: Cure
  Median survival time: Indefinite
[2]; [10]
  60 day survivors/15 animals: 1
  ILS value (Median survival time of (Treated/Control − 1) × 100]): 35%
  Median survival time: 27 days
[2]; [11]
  60 day survivors/15 animals: 11
  ILS value (Median survival time of (Treated/Control − 1) × 100]): Cure
  Median survival time: Indefinite
[3]
  outcome of pregnancy (teratogenicity): gave birth to healthy litters
[4]; intravenous, from 3rd week of the treatment
  local reaction to intravenous injections: swelling appeared in the tail and adjoining regions
[4]; multiple dose, observed up to 90 days after treatment
  toxic effect on physical condition and behavioral pattern, death: No toxic effect
[5]
  death and toxic effect (physical and behavioral): No death and toxic effect
[6]
  histological examination of organs (liver, kidney, spleen, duodenum, bone marrow): none of the organs tested by histological examination had any adverse effect
[7]; [12]
  Lag time: ≈55 min
  V (apparent volume of distribution): 23.31 L/kg
  ka (apparent absorption rate constant): 0.277 h⁻¹
  k (elimination rate constant): 0.33 h⁻¹
[7]; [13]
  Lag time: ≈50 min
  V (apparent volume of distribution): 41.84 L/kg
  ka (apparent absorption rate constant): 0.223 h⁻¹
  k (elimination rate constant): 0.198 h⁻¹
[7]; [14]
  Lag time: ≈50 min
  V (apparent volume of distribution): 80.97 L/kg
  ka (apparent absorption rate constant): 0.216 h⁻¹
  k (elimination rate constant): 0.192 h⁻¹
[7]; mice, single oral dose, all the three doses (50, 100, 200 mg/kg)
  lag time: 50 to 55 min
[7]; mice, untreated and orally treated
  concentrations in plasma and whole blood compared: almost identical
[7]
  half-life: 2.1 to 3.6 h
[7]; 50 mg/kg
  CL/F: 128 mL/min/kg
  Cmax: 13.9 µM
  half-life: 2.1 h
[7]; 50 mg/kg, tmax, mice, single oral dose 50 mg/kg
  Tmax: ~4 h
[7]; 100 mg/kg
  CL/F: 138 mL/min/kg
  Cmax: 18.7 µM
  half-life: 3.5 h
[7]; 100 mg/kg, tmax, mice, single oral dose 100 mg/kg
  Tmax: ~4 h
[7]; 200 mg/kg
  CL/F: 259 mL/min/kg
  Cmax: 19.5 ± 3.36 µM
  half-life: 3.6 h
[7]; 200 mg/kg, time of peak blood concentration (tmax), mice, single oral doses of 50, 100 and 200 mg/kg
  Tmax: 4 h
[7]; 200 mg/kg, tmax, mice, single oral dose 200 mg/kg
  Tmax: ~4 h
